Literature values in patent publication US10201584B1, “Compositions and methods for treating HCV” (AbbVie Inc., priority 2011, dated 2019).

Test system: HCV
Details: hepatitis C patients; background statement

NC(=O)c1ncn([C@@H]2O[C@H](CO)[C@@H](O)[C@H]2O)n1 [ribavirin]
suppression of HCV levels / effectiveness of regimen: does not effectively suppress HCV levels
